Biological target: T1, TRIM21 PRYSPRY (Homo sapiens, UniProt P19474)
T1 construct: PRYSPRY domain (TRIM21his-PS)
Assay: crystal structure; fluorescence polarisation, tryptophan quenching, nanoDSF
Assay type: binding

T1 sequence (P19474 287-465 limits assumed): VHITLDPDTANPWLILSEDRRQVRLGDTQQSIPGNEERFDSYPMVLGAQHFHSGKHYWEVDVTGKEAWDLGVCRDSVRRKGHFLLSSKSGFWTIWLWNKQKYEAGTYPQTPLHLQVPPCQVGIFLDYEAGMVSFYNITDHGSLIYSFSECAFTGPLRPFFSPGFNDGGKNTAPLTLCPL

## CNC(=O)[C@H](Cc1ccncc1)NC(=O)[C@@H]1C[C@@H](C2CCCCC2)CN1C(=O)C[C@H](N)c1ccccc1OC [MRC37]
  Kd: 400 nM

Reference: article PMC12647892, “State-selective small molecule degraders that preferentially remove aggregates and oligomers” (Nature Communications, 2025)
